Earlier results on 1 substance are cited in patent US20240200062A1, “METHODS OF TREATING DUCHENNE MUSCULAR DYSTROPHY USING PEPTIDE-OLIGONUCLEOTIDE CONJUGATES” (PepGen Inc., priority 2021, published 2024).

The test system of this data set is dystrophin. As to conditions: in vivo; cited from earlier work.

On to eteplirsen, for which the “levels of dystrophin restoration” value is “approximately 1 % of normal dystrophin levels”.
